Assays:
[1] = molecular target: T1, FLAG-SIRT1 purified from HEK293 cells (Homo sapiens, UniProt Q96EB6); assay: In vitro SIRT1 deacetylation assay; type: biochemical; conditions: -/+ NAD+, Shikimic acid 1 μM-10mM
T1 construct: FLAG; made in house; host or cells: HEK293 (HEK293F)
T1 sequence (Q96EB6 1-747): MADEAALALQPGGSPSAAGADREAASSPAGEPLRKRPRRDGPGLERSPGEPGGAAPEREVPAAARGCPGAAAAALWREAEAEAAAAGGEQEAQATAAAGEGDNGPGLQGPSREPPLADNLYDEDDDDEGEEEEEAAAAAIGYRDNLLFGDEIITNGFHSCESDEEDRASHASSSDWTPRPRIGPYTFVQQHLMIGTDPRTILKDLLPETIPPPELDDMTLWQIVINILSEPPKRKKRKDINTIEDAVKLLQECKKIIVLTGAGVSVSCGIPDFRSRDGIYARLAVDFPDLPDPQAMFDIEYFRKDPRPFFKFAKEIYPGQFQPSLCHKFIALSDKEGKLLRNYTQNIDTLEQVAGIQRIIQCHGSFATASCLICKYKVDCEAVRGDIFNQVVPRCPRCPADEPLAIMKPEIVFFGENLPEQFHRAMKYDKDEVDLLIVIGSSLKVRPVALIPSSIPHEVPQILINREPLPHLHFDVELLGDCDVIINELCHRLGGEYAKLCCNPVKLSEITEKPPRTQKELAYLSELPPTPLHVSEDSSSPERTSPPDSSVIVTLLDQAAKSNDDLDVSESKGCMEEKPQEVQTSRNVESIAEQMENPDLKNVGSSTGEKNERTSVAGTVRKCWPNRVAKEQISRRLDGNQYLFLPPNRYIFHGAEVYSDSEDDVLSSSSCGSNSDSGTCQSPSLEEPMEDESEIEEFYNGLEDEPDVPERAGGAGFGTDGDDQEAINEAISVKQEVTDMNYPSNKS
Protocol: Figure 3 (A) Schematic representation of the protocol for senescence induction using UVB irradiation and study of EX527 involvement in the effect of Shikimic acid. Cells were treated with or without shikimic acid -/+ EX-527 from day 1 until day 7 after seeding, irradiated with UVB on days 2 and 5 and harvested for analysis on day 7. (B) Phase-contrast (left column) and bright field (right column) microscope images of β-Gal staining showing non-irradiated cells non-treated and treated with shikimic acid (10, 25 and 50 mM), UVB-irradiated cells non-treated and treated with shikimic acid (10, 25 and 50 mM), shikimic acid (10, 25 and 50 mM) + EX-527 1 μM and EX-527 1 μM. (C) Percentage of SA-β-Gal positive cells and (D) relative HAS2 mRNA levels in non-irradiated cells non-treated and treated with Shikimic acid (10, 25 and 50 mM), UVB-irradiated cells non-treated and treated with Shikimic acid (10, 25 and 50 mM), Shikimic acid (10, 25 and 50 mM) + EX-527 1 μM and EX-527 1 μM. (E) Percentage of SA-β-Gal as in (C) of SA 25 or 50mM upon siRNA mediated downregulation of SIRT1, SIRT2 or SIRT6. siScr: scramble siRNA. […] SIRT1 activity was then evaluated by analyzing acetylation of H3K9, H4K16 and p53K382 by Western blot. […]
The in vitro SIRT1 deacetylation assay was performed as previously described. […] Deacetylation was monitored by quantification of H3K9ac/H3, H4K16ac/H4 and p53K382ac/p53 levels.

[2] = system: p16^INK4a; assay: p16INK4a mRNA levels (qPCR); type: cell-based, human; conditions: UVB-irradiated HDF, SA treatment
Protocol: Figure 4 (A) SRB and Trypan blue cell viability assays performed in cells treated with or without Shikimic acid (5, 10, 25 and 50 mM) for 24h. (B) Apoptosis detection using the Annexin V-FITC/PI double staining followed by flow cytometry in non-irradiated and non-treated cells, irradiated and non-treated cells and irradiated cells treated with Shikimic acid (10, 25 and 50 mM). (C) Representation and statistical analysis of the percentage of apoptotic cells in each of the conditions analyzed. (D) Cell cycle analysis using PI staining followed by flow cytometry. (E) Relative p16^INK4a mRNA levels monitored by qPCR in the indicated conditions. Student T-test, *p<0.05. […]
RNA was extracted from cell pellets using the Total RNA Purification Kit (Norgen, Canada), according to the manufacturer’s protocol. Extracted RNA was quantified using a NanoDrop® ND-1000 UV-Vis Spectrophotometer (Thermo Fisher Scientific, USA) and 300 ng of RNA were retrotranscribed to cDNA using the PrimeScriptTM RT reagent kit (Takara Bio Inc., Japan). cDNA was diluted 1/10 in ultrapure water and qPCR mix was prepared by adding cDNA (12 ng), SYBR green supermix (Bio Rad, USA), forward and reverse primers (0.2μM). […] The results were analyzed with Bio-Rad CFX Manager software. […]

O=C(O)C1=C[C@@H](O)[C@@H](O)[C@H](O)C1 [Shikimic acid]
SIRT1 deacetylation activity in vitro (H3K9ac, H4K16ac, p53K382ac) [1]: did not alter SIRT1 deacetylation activity in vitro
p16INK4a mRNA levels [2]: downregulation of the cell cycle regulator p16

From publication PMC8148468, “Shikimic acid protects skin cells from UV-induced senescence through activation of the NAD+-dependent deacetylase SIRT1” (Aging (Albany NY), 2021)
